Data as given in ChEMBL document CHEMBL1128048, “Synthesis of chromophoric dipeptides as substrates for papain” (Bioorg Med Chem Lett, 1995).

Columns and labels:
Type in all cases: ADME
[1] = Ratio of catalytic constant to Michaelis-Menten constant (Kcat/Km)
[2] = Compound was evaluated for Michaelis-Menten constant, Km
[3] = Compound was evaluated for catalytic constant, Kcat

Structure (SMILES) | Ratio [1] | Km [2] [Me-3] | k cat [3] [s⁻¹]
CCOC(=O)/C(=C\c1ccc(C)s1)NC(=O)[C@H](Cc1ccccc1)NC(C)=O | 3.2 | 0.062 | 0.0033
CCOC(=O)N/C(=C/c1ccc(C)s1)C(=O)n1ccnc1 | – | – | 0.0013
Cc1ccc(/C=C\C(=O)n2ccnc2)s1 | – | – | 0.0012
CCOC(=O)/C(=C\c1ccc(C)s1)NC(=O)[C@H](C)NC(C)=O | 0.05 | 3.9 | 0.0033
